Data from ChEMBL document CHEMBL1201862, “PubChem BioAssay data set” (2004).
Active and inactive are the calls of the source. Rule as the data show it, for most assays here: actives have a measured EC50 and inactives only a lower limit.

Tests used:
cells [1] = format: functional, cell-based
cells [2] = format: functional, cell-based; remark: listed apart in the source
[3] = inhibitors of firefly luciferase expression or activity, dose response, H4 neuroglioma cells, luminescence (AID 1990); format: functional, cell-based
[4] = inhibitors of SNCA 5'UTR-driven reporter translation, confirmation, H4 neuroglioma cells, luminescence (AID 1988); format: functional, cell-based
[5] = Luminescence Cell-Based Dose Response HTS to Identify Inhibitors of 5'UTR Stem-Loop Driven Prion Protein mRNA Translation in H4 Neuroglioblastoma Cells. [Related pubchem assays: 1827 (Project Summary), 1813 (Primary HTS)]; format: functional
[6] = cytotoxicity in HEK-293T cells, dose response, cytotoxicity control for TCR NF-kB inhibitor project, luminescence, T-cell screen hits (AID 489026); format: functional, cell-based;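 also: cells exposed to compound about 14 hours before the viability readout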
[7] = inhibitors of intracellular T. cruzi replication, confirmation, NIH3T3 host cells, beta-gal luminescence (AID 2044); format: functional, cell-based;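 also: intracellular parasites grown in NIH/3T3 mouse fibroblasts as host cells; luminescent beta-galactosidase reporter signal from transgenic T. cruzi replicating inside host cells; inhibitors lower the luminescence signal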
Coagulation factor XII = molecular target: T1, Coagulation factor XII (Homo sapiens, UniProt P00748); format: functional;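 also: activated factor XIIa alpha cleaving a fluorogenic AMC peptide substrate; inhibitor potency from loss of enzyme activity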
T1 sequence (P00748 whole entry): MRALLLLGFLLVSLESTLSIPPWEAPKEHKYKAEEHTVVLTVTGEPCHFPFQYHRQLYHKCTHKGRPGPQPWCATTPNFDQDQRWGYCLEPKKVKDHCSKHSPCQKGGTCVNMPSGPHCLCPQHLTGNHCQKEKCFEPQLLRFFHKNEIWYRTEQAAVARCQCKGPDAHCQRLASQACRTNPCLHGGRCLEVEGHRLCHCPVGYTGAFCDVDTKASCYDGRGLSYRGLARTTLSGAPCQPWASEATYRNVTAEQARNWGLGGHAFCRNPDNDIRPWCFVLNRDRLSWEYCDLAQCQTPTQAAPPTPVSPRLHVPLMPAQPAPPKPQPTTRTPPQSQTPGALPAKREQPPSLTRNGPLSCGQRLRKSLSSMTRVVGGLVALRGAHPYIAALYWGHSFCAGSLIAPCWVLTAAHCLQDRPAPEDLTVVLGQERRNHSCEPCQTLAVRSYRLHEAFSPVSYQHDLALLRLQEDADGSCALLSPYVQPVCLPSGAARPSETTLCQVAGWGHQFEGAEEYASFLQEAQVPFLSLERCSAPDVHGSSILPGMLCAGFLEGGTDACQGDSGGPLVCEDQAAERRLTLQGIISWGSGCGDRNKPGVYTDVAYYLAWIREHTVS

BJ [8] = experiment: cytotoxicity toward BJ-TERT fibroblasts, dose response, cell-based, RAS-independent, luminescence (AID 1933); format: functional; conditions: Homo sapiens
BJ [9] = experiment: cells; format: functional, cell-based; conditions: Homo sapiens
[10] = cytotoxicity toward DRD oncogenic fibroblasts, dose response, cell-based, non-viral oncogenic, luminescence (AID 1934); format: functional; conditions: Homo sapiens
BJ [11] = experiment: cytotoxicity toward BJ-TERT-LT-ST fibroblasts, dose response, cell-based, RAS-independent, luminescence (AID 1935); format: functional; conditions: Homo sapiens;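 also: BJ fibroblasts immortalized with TERT plus LT and ST oncogenes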
[12] = HepG2 cell cytotoxicity, dose response, cytotoxicity control for Shn3 inhibitor project, CellTiter-Glo, cherry-picked (AID 624134); format: functional, cell-based
[13] = Shn3 3'UTR reporter inhibitors, dose response, cell-based, Clone20 osteoblasts, firefly luciferase, cherry-picked (AID 624132); format: functional;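 also: firefly luciferase luminescence from reporter carrying the Shn3 3'UTR in osteoblasts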
[14] = control 3'UTR Renilla luciferase suppression, dose response, counter-screen for Shn3 inhibitor project, cell-based, Clone20-Shn3RL, cherry-picked (AID 624133); format: functional
[15] = molecular target: T2, Heat shock factor protein 1 (Mus musculus, UniProt P38532); experiment: HSF1 potentiators in luciferase reporter cells, confirmation, cell-based, NIH3T3, luminescence, dose retest (AID 435004); format: functional;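 also: stress induced by proteasome inhibitor MG132 added 30 min after compound; luciferase reporter driven by HSF1 response element in NIH3T3 cells; actives raise luminescence as potentiators of the MG132 stress response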
T2 sequence (P38532 whole entry): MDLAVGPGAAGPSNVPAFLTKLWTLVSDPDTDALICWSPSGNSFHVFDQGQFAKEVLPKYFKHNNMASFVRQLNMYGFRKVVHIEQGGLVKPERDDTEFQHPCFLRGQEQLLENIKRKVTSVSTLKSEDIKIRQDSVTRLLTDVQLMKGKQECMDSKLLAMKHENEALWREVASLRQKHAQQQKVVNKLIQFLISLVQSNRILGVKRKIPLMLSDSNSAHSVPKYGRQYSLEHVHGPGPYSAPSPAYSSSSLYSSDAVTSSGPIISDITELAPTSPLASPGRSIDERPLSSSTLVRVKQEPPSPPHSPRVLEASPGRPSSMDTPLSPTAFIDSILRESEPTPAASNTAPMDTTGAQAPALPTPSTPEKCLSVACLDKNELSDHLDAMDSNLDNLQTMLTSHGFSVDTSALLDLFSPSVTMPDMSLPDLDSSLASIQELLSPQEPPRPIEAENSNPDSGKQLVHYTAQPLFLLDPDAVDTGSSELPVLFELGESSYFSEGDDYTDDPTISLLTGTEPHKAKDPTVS

[16] = molecular target: T3, Replicative DNA helicase DnaB (Mycobacterium tuberculosis, UniProt P9WMR3); experiment: DnaB intein splicing inhibitors, dose response, biochemical, cell-free fluorescence (AID 449749); format: functional
T3 sequence (P9WMR3 whole entry): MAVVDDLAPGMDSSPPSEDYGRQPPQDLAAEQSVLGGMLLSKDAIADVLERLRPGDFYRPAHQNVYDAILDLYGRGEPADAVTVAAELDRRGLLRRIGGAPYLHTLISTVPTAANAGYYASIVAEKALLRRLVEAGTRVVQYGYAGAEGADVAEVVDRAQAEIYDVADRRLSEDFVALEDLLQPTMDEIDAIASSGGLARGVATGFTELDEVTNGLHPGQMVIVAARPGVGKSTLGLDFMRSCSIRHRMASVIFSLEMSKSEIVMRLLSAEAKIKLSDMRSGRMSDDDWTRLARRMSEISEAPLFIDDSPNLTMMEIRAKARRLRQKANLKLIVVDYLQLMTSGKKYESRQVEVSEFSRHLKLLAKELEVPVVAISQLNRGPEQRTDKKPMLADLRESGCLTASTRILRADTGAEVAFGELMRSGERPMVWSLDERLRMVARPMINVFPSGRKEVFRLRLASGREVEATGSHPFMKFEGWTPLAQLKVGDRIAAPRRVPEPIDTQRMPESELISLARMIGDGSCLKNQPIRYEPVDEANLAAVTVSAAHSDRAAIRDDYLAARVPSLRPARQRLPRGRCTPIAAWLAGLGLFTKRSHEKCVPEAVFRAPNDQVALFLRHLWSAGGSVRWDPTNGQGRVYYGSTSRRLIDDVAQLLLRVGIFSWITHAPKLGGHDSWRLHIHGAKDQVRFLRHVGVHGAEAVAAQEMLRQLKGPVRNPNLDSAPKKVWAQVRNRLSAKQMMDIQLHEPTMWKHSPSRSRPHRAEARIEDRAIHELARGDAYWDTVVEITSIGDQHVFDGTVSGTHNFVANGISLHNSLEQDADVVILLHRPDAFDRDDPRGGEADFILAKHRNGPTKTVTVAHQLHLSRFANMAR

Protein RecA = molecular target: T4, Protein RecA (Mycobacterium tuberculosis, UniProt P9WHJ3); experiment: Fluorescence Cell-Free Homogeneous Dose Retest to Identify Inhibitors of RecA-Intein Splicing Activity. [Related pubchem assays (depositor defined):AID2097, AID2223, AID489010, AID492950]; format: functional
T4 sequence (P9WHJ3 whole entry): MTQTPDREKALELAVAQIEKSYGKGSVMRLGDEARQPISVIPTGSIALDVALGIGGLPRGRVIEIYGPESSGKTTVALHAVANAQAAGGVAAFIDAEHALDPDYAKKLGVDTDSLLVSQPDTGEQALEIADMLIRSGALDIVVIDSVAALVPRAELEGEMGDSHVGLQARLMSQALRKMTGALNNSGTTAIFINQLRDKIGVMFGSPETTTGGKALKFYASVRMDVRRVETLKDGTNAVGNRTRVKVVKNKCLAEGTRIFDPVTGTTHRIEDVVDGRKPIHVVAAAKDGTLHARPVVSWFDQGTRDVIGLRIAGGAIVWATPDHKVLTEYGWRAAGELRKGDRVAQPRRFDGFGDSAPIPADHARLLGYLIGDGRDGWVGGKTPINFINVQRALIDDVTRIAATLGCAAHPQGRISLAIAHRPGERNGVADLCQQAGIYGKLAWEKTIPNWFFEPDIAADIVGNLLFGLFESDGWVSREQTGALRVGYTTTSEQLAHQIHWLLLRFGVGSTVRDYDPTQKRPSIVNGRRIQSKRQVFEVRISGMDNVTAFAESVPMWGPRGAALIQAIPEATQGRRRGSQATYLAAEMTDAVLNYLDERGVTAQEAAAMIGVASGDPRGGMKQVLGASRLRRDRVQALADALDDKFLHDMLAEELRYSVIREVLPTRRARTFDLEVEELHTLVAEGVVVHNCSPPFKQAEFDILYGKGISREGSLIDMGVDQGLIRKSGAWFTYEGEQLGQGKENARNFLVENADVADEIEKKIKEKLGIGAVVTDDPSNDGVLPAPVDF

[17] = A549 cell cytotoxicity, dose response, cytotoxicity control, plate reader, cherry-pick, antagonist series (AID 743412); format: functional, cell-based
[18] = Luminescence Cell-Based Dose Retest to Confirm Inhibitors of Cancer Stem Cells. [Related pubchem assays (depositor defined):AID2717, AID2721]; format: functional; conditions: Homo sapiens
INS1 = experiment: beta cell apoptosis inhibitors, cytokine rescue, dose response, luminescence, retest (AID 449756); format: functional, cell-based; conditions: Rattus norvegicus;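 also: cell death triggered by IL-1 beta plus TNF-alpha plus IFN-gamma mixture; protective hits raise ATP signal compared with cytokine alone wells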
[19] = intracellular Trypanosoma cruzi inhibitors in host cells – cell-based, plate reader, cherry-pick samples, set 3, dose response (AID 651818); format: functional;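 also: compounds incubated with infected cells for about four days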

SMILES: CC(=O)NCCC(=O)Nc1cc(S(=O)(=O)N2CCOCC2)ccc1N1CCOCC1
- EC50 (cells [1]): > 350 µM (not active)
- EC50 (cells [2]): > 350 µM (not active)

SMILES: Cc1c(C(=O)OCC(C)C)[nH]c2c1C(=O)CC(c1cccs1)C2 (stereo not drawn)
- EC50 [3]: 8.93 µM (inconclusive)
- EC50 [4]: 3.13 µM (active)
- EC50 [5]: > 60 µM (not active)
- IC50 [6]: > 80 µM (inactive)
- EC50 [7]: 4.91 µM (active)

SMILES: CCCCCCCCCC(=O)Nn1cnc2ccccc2c1=O
- IC50 (Coagulation factor XII): > 50 µM (inactive)

SMILES: COc1cc(Cl)c(C)cc1NC(=O)CSC
- IC50 (Coagulation factor XII): > 50 µM (inactive)

SMILES: O=C(C[n+]1cc(-c2ccccc2)n2c1CCC2)Nc1nc(-c2ccccc2)cs1
- IC50 (Coagulation factor XII): > 50 µM (inactive)

SMILES: COc1ccccc1CNC(=O)c1cccc(NC(=O)c2ccccc2)c1
- EC50 (cells [1]): > 350 µM (not active)
- EC50 (cells [2]): 56.2 µM (active)

SMILES: CCN(Cc1ccccc1)C(=O)CCNS(=O)(=O)c1ccc2c(c1)CC(C)N2C(C)=O (stereo not drawn)
- EC50 (cells [1]): > 350 µM (not active)
- EC50 (cells [2]): > 350 µM (not active)

SMILES: Cc1nc(-c2ccc(C(=O)Nc3ccccc3F)cc2)cs1
- EC50 (BJ [8]): 13.7 µM (active)
- EC50 (BJ [9]): 10.8 µM (active)
- EC50 [10]: 11 µM (active)
- EC50 (BJ [11]): 19.9 µM (active)

SMILES: COc1ccc2nc(NC(=O)Nc3ccccc3OC)sc2c1
- EC50 (cells [1]): > 350 µM (not active)
- EC50 (cells [2]): 4.4 µM (active)

SMILES: CCCCCn1c(N2CCN(c3cccc(Cl)c3)CC2)nc2c1c(=O)[nH]c(=O)n2C
- AC50 [12]: 59.4 µM (active)
- AC50 [13]: 21.8 µM (active)
- AC50 [14]: 18.3 µM (active)
- EC50 [15]: > 260 µM (inactive)

SMILES: COc1cccc2sc(NC(=O)c3ccc(S(=O)(=O)N4CCOCC4)cc3)nc12
- IC50 (Coagulation factor XII): > 50 µM (inactive)

SMILES: COC(=O)c1ccc(C)c(NC(=O)CN(c2cc(OC)ccc2OC)S(C)(=O)=O)c1
- EC50 (BJ [8]): > 150 µM (not active)
- EC50 (BJ [9]): > 150 µM (not active)
- EC50 [10]: > 150 µM (inconclusive)
- EC50 (BJ [11]): > 150 µM (not active)

SMILES: COC(CN(C(=O)CCl)C(C(=O)NC1CCCCC1)c1ccc(Cl)cc1)OC (stereo not drawn)
- EC50 (cells [1]): > 350 µM (not active)
- EC50 (cells [2]): > 350 µM (not active)
- AC50 [16]: 15.8 µM (active)
- EC50 (Protein RecA): 1.81 µM (active)

SMILES: CC1=NC(C#N)=C(C#N)NC(C)(C)C1
- EC50 (cells [1]): > 350 µM (not active)
- EC50 (cells [2]): > 350 µM (not active)

SMILES: CC[C@H](CO)Oc1cc(NCc2ccc(Cl)c(Cl)c2)c2ncn(C(C)C)c2c1
- AC50 [17]: 30 µM (active)

SMILES: O=C(NN=Cc1c(O)ccc2ccccc12)c1ccc2c(c1)OCO2
- IC50 [6]: > 80 µM (inactive)

SMILES: CC(C)(C)c1cc(C(=O)N/N=C/c2ccccc2O)n(-c2ccccc2)n1
- AC50 [12]: 5.66 µM (active)
- AC50 [13]: 2.25 µM (active)
- AC50 [18]: 3.05 µM (active)
- AC50 [14]: 2.18 µM (active)
- AC50 (INS1): 3.37 µM (active)

SMILES: Cc1noc(C)c1S(=O)(=O)Nc1ccc2c(c1)C(=O)N([C@H](C)CO)C[C@H](C)[C@@H](CN(C)C(=O)Nc1ccc(C(F)(F)F)cc1)OCCCC[C@@H](C)O2
- AC50 [19]: 1.19 µM (active)

SMILES: C[C@@H]1CN([C@@H](C)CO)C(=O)Cc2cc(NC(=O)CCC(F)(F)F)ccc2O[C@@H]1CN(C)Cc1ccc(C(=O)Nc2ccccc2N)cc1
- AC50 [19]: 2.67 µM (active)

SMILES: C[C@H]1CN([C@@H](C)CO)C(=O)c2cccc(NC(=O)Nc3ccc(F)cc3)c2O[C@@H]1CN(C)Cc1ccc(C(=O)Nc2ccccc2N)cc1
- AC50 [19]: 3.18 µM (active)

SMILES: C[C@@H]1CN([C@@H](C)CO)C(=O)c2cccc(NC(=O)c3cnccn3)c2O[C@@H]1CN(C)Cc1ccc(C(=O)Nc2ccccc2N)cc1
- AC50 [19]: 2.35 µM (active)

SMILES: C[C@@H]1CN([C@H](C)CO)C(=O)c2cccc(NC(=O)c3ccncc3)c2O[C@@H]1CN(C)Cc1ccc(-c2ccccc2)cc1
- AC50 [19]: 4.37 µM (active)

SMILES: C[C@@H]1CN([C@@H](C)CO)C(=O)c2cccc(NC(=O)C3CCCCC3)c2O[C@H]1CN(C)Cc1ccc(-c2ccccc2)cc1
- AC50 [19]: 3.29 µM (active)
